# Measurements from ChEMBL document CHEMBL1201862, “PubChem BioAssay data set” (2004).
# The source made the active and inactive calls.
# Columns and labels:
# [1] = LGR2 antagonists, dose response, cell-based, HEK293, CRE-luciferase reporter, cherry pick, set 2 (AID 743343); type: functional;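 also: transfected cells were stimulated with diluted bursicon conditioned medium after compound addition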
# [2] = cells; type: functional, cell-based
# [3] = MC4R antagonists, dose response, counter-screen for LGR2 antagonist project, cell-based, plate reader, cherry pick (AID 743444); type: functional;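 also: transfected HEK 293 cells stimulated with alpha-MSH peptide; potency of inhibitors of the alpha-MSH evoked signal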
# [4] = cells; type: functional, cell-based; remark: listed apart in the source
# [5] = A549 cell cytotoxicity, dose response, cytotoxicity control, plate reader, cherry-pick, antagonist series (AID 743412); type: functional, cell-based
# [6] = HepG2 cell cytotoxicity, dose response, cytotoxicity control, plate reader, cherry-pick, antagonist series (AID 743416); type: functional, cell-based
# [7] = target: T1, Oxysterols receptor LXR-beta (Homo sapiens, UniProt P55055); type: functional, cell-based;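 also: Cell-based luminescence dose-response assay of agonist activity at LXR, run as a confirmatory counterscreen to a daf-12 agonist screen; HEK293 cells with Gal4-LXR fusion and GAL4-driven luciferase reporter; agonist potency from rising luciferase signal of a Gal4-LXR reporter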
# T1 sequence (P55055 whole entry): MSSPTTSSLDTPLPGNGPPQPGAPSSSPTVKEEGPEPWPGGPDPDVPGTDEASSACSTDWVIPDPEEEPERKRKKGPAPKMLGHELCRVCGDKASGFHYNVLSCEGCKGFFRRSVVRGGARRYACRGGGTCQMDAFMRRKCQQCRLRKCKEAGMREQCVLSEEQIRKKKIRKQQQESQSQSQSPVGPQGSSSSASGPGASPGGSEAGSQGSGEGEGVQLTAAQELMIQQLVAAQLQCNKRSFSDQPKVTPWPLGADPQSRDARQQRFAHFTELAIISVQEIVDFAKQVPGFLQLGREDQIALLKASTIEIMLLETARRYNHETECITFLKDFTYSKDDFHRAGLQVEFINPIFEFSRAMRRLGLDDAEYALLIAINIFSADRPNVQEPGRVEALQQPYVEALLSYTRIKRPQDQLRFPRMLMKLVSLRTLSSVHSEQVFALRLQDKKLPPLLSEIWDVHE
# [8] = cells
# [9] = HEK293 cell cytotoxicity, dose response, cytotoxicity control, plate reader, cherry-picked samples (AID 743446); type: functional, cell-based
# [10] = target: Beta-galactosidase (Escherichia coli, UniProt Q8VNN2); assay: Dose response counterscreen for EBI2 assay utilizing the enzyme, b-galactosidase.; type: functional
# Sequence of Beta-galactosidase (Q8VNN2 whole entry, the tested form may be a part): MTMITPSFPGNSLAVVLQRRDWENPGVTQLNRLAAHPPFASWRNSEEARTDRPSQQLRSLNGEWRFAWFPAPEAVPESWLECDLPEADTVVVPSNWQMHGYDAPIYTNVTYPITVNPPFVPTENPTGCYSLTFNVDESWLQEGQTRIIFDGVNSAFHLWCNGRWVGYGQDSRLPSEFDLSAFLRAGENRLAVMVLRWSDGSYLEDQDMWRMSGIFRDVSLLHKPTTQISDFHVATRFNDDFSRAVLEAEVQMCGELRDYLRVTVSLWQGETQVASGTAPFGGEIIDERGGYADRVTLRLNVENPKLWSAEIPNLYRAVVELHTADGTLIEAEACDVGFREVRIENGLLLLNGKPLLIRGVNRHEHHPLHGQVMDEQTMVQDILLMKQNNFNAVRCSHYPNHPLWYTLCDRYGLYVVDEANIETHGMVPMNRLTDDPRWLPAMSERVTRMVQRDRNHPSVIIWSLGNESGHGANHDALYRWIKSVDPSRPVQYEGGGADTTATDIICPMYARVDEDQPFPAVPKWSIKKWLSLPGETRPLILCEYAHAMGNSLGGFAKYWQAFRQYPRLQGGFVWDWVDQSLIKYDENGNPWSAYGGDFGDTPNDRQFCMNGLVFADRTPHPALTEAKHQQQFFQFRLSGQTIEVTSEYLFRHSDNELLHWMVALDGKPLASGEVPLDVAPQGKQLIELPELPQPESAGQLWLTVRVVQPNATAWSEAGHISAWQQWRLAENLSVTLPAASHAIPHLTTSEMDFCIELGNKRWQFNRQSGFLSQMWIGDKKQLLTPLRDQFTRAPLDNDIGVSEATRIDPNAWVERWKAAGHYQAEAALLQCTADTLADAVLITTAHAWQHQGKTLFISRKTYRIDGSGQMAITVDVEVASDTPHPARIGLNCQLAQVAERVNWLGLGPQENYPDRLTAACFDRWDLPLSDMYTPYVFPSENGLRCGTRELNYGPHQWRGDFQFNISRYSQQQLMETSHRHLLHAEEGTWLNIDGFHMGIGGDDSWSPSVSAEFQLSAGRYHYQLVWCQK
# [11] = target: T2, Fatty acid synthase (Homo sapiens, UniProt P49327); assay: FAS thioesterase domain inhibitors, dose response, biochemical, endpoint fluorescence intensity, uHTS hits (AID 624327); type: functional;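 also: fluorescence from hydrolysis of an O-methyl fluorescein acyl ester substrate by the enzyme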
# T2 sequence (P49327 whole entry, the tested form may be a part): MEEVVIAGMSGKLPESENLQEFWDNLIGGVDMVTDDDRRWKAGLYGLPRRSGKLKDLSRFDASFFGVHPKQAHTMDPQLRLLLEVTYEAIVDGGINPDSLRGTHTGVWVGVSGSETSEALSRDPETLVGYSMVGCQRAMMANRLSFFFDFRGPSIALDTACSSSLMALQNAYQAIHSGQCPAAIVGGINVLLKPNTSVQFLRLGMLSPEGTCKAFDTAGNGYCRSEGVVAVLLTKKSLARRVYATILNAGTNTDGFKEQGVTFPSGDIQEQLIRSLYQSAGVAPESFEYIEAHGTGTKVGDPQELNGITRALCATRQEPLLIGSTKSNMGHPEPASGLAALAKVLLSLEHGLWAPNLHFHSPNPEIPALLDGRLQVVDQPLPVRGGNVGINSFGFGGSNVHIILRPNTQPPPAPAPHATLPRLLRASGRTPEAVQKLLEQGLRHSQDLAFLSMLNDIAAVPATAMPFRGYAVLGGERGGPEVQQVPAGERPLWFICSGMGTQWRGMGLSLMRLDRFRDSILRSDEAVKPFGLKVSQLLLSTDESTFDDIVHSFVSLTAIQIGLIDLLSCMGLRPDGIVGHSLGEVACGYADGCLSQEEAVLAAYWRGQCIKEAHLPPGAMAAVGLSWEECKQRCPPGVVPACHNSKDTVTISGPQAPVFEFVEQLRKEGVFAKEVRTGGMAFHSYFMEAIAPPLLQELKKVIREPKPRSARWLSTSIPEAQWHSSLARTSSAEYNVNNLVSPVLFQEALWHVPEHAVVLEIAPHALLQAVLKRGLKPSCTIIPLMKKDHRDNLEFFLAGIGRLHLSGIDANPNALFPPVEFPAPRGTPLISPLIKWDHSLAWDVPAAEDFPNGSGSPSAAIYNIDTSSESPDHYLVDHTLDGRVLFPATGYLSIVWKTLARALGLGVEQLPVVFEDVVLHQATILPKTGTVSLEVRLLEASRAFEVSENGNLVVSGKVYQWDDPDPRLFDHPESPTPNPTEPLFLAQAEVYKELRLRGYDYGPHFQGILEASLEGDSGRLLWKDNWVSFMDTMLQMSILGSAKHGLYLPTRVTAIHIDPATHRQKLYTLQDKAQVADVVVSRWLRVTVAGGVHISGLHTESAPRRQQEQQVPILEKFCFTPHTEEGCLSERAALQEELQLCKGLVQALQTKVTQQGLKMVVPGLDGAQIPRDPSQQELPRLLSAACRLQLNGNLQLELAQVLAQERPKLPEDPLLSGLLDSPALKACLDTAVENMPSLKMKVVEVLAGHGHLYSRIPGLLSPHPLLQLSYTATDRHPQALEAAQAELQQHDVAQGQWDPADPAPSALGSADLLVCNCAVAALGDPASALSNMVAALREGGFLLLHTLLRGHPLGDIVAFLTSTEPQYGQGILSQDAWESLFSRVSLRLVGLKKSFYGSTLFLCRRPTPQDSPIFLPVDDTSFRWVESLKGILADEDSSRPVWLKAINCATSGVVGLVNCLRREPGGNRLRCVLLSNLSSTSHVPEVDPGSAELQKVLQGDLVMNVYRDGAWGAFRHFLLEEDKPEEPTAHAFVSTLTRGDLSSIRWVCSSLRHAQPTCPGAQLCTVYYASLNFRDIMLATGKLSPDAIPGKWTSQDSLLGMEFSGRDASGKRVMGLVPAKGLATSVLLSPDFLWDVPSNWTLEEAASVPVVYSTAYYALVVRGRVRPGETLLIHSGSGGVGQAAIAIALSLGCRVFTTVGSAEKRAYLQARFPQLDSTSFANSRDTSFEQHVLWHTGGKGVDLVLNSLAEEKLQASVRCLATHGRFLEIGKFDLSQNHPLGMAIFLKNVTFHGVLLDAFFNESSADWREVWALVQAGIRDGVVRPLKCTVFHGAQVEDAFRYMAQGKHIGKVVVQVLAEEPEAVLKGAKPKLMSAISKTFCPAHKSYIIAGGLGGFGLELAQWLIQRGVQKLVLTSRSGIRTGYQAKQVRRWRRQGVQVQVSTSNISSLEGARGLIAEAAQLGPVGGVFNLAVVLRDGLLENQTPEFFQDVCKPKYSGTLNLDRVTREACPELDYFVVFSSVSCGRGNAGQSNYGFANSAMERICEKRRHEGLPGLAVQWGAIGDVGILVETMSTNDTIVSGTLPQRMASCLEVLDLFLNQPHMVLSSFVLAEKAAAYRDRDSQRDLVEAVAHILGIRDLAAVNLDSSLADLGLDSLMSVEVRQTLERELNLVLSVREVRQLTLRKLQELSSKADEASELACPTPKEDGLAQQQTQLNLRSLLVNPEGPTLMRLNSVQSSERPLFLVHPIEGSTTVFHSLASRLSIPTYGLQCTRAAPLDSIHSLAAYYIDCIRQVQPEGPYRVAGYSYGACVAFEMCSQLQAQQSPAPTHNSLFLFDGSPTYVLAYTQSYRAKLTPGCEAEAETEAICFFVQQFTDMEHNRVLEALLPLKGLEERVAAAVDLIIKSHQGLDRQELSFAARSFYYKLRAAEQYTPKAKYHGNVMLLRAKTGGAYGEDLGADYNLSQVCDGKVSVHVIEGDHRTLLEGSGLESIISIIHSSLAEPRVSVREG
# [12] = target: T3, Probable nicotinate-nucleotide adenylyltransferase (Staphylococcus aureus (strain N315), UniProt P65502); type: functional, Staphylococcus aureus subsp. aureus N315;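 as to IC50 Mean: confirmatory dose-response retesting of NadD inhibitor hits first found in an ultra-high-throughput screen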
# T3 sequence (P65502 whole entry): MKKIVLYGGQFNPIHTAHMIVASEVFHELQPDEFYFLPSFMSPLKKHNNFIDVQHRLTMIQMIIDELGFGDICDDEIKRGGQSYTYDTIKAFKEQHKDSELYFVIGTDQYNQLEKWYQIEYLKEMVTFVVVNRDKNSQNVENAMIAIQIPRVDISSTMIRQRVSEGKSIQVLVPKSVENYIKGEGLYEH
# [13] = target: T4, Galanin receptor type 3 (Homo sapiens, UniProt O60755); assay: Fluorescence-based cell-based primary high throughput dose response assay to identify antagonists of the Galanin Receptor 3 (GalR3).; type: functional
# T4 sequence (O60755 whole entry): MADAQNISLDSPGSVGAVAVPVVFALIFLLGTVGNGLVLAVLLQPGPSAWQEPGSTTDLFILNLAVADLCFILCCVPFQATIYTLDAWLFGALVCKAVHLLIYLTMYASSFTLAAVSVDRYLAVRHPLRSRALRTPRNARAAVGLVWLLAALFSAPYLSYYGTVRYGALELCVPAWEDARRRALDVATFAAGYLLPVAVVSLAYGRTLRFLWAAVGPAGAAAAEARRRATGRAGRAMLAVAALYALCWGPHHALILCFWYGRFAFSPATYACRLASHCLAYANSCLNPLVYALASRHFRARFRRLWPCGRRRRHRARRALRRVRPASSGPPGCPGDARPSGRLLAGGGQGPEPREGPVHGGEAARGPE
# [14] = target: T2, Fatty acid synthase; assay: FAS thioesterase domain inhibitors, dose response, biochemical, kinetic fluorescence intensity (AID 624326); type: functional;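 also: rate of fluorescence rise from hydrolysis of a fluorogenic O-methyl fluorescein ester substrate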
# [15] = test system: INS1; assay: beta cell apoptosis inhibitors, cytokine rescue, dose response, luminescence, retest (AID 449756); type: functional, cell-based; details: Rattus norvegicus;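 also: cell death triggered by IL-1 beta plus TNF-alpha plus IFN-gamma mixture; protective hits raise ATP signal compared with cytokine alone wells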
# [16] = cells; type: functional, cell-based; details: HEK-CNG
# [17] = target: T3, Probable nicotinate-nucleotide adenylyltransferase; type: functional, Staphylococcus aureus subsp. aureus N315; details: read-out: IC50_Mean
# [18] = target: T5, Long-chain-fatty-acid--AMP ligase FadD28 (Mycobacterium tuberculosis, UniProt P9WQ59); assay: Fluorescence polarization aasay to screen for inhibitors that compete for the binding of FadD28 to a bisubstrate Measured in Biochemical System Using Plate Reader - 2147-01_Inhibitor_Dose_CherryPick_Activity.; type: functional, Mycobacterium tuberculosis H37Rv
# T5 sequence (P9WQ59 whole entry): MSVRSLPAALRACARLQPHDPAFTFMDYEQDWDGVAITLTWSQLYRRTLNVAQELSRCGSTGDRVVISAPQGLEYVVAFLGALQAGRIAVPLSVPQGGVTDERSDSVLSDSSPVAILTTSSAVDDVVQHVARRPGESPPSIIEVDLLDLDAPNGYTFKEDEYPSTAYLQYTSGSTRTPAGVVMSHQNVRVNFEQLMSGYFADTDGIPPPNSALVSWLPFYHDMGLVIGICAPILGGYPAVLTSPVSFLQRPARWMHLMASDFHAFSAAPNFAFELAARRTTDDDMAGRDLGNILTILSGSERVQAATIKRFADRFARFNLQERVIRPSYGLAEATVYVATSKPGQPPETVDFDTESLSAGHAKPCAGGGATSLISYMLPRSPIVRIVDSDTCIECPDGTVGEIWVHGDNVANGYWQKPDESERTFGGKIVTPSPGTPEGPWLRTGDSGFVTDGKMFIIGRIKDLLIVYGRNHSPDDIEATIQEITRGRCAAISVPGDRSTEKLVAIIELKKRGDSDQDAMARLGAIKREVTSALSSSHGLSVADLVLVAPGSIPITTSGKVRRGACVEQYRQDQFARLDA
# [19] = cytotoxicity in HEK-293T cells, dose response, cytotoxicity control for TCR NF-kB inhibitor project, luminescence, T-cell screen hits (AID 489026); type: functional, cell-based;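 also: cells exposed to compound about 14 hours before the viability readout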
# [20] = control 3'UTR Renilla luciferase suppression, dose response, counter-screen for Shn3 inhibitor project, cell-based, Clone20-Shn3RL, cherry-picked (AID 624133); type: functional
# [21] = Shn3 3'UTR reporter inhibitors, dose response, cell-based, Clone20 osteoblasts, firefly luciferase, cherry-picked (AID 624132); type: functional;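 also: firefly luciferase luminescence from reporter carrying the Shn3 3'UTR in osteoblasts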
# [22] = HepG2 cell cytotoxicity, dose response, cytotoxicity control for Shn3 inhibitor project, CellTiter-Glo, cherry-picked (AID 624134); type: functional, cell-based
# [23] = cells; type: functional, cell-based; remark: listed apart in the source
# [24] = target: T6, Nuclear receptor subfamily 0 group B member 1 (Homo sapiens, UniProt P51843); type: functional, cell-based;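 also: HEK293T cells transfected with SF-1 and DAX-1 plus StAR promoter luciferase reporter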
# T6 sequence (P51843 whole entry): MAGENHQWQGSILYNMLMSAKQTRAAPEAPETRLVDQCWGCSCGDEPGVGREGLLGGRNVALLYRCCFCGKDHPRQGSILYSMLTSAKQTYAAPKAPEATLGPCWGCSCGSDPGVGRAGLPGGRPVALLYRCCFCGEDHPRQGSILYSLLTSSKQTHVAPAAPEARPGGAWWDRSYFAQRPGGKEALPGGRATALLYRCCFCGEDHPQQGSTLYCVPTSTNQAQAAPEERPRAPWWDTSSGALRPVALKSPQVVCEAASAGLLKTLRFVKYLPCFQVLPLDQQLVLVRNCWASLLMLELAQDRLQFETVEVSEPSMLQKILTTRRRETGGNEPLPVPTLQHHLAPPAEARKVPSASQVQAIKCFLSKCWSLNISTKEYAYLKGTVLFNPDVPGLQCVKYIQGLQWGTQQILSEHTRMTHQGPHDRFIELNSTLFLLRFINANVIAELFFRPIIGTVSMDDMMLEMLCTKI
smiles,measurement,setting,value
O=C(Nc1ccc2ccccc2c1)c1ccccc1O,AC50,[1],7.6 µM (active)
same,EC50,[2],6.87 µM (active)
same,AC50,[3],6.02 µM (active)
same,EC50,[4],> 350 µM (not active)
same,AC50,[5],> 52 µM (inactive)
same,AC50,[6],6.27 µM (active)
same,EC50,[7],> 67.6 µM (inactive)
same,EC50,[8],> 67.6 µM (inactive)
same,AC50,[9],7.8 µM (active)
COc1ccc(/C=C/C(=O)N2CCN(S(=O)(=O)/C=C/c3ccccc3)CC2)cc1OC,IC50,[10],> 80 µM (inactive)
Cc1cc(-c2ccccc2)n2ncc(-c3ccccc3)c2n1,AC50,[1],4.98 µM (active)
same,AC50,[3],7.1 µM (active)
same,AC50,[5],> 52 µM (inactive)
same,AC50,[6],39.3 µM (active)
same,EC50,[7],> 67.5 µM (inactive)
same,EC50,[8],> 67.5 µM (inactive)
Cc1ccc(S(=O)(=O)Nc2ccccc2C(=O)Nc2nc(-c3ccc(F)cc3)cs2)cc1,IC50,[11],9.65 µM (active)
same,IC50,[12],7.69 µM (active)
same,IC50,[13],1.44 µM (active)
same,IC50,[14],10.7 µM (active)
same,AC50,[15],2.97 µM (active)
same,EC50,[16],> 29.9 µM (inactive)
same,IC50,[17],62.2 µM (active)
C/C(Cl)=C/Cn1c(SC(C)C)nc2c1c(=O)[nH]c(=O)n2C,AC50,[18],> 100 µM (inactive)
Cc1ccc(Oc2ccc(OCC(=O)Nc3ccncc3)cc2)cc1,IC50,[19],> 80 µM (inactive)
same,IC50,[13],0.158 µM (active)
same,AC50,[20],< 1 µM (active)
same,AC50,[21],1.55 µM (active)
same,AC50,[22],4.76 µM (active)
same,EC50,[16],> 29.9 µM (inactive)
S=C(NCCc1ccccc1)Nc1ncccn1,IC50,[23],> 67.5 µM (inactive)
same,IC50,[24],> 67.5 µM (inactive)
